According to article PMC11679033, “Assessing the Potential Synergistic/Antagonistic Effects of Citrinin and Cannabidiol on SH-SY5Y, HepG2, HEK293 Cell Lines, and Human Lymphocytes” (Toxins, 2024):
Marks after values point to notes of the source that are not given here.

Legend:
[1] = system: human peripheral blood lymphocytes; experiment: Alkaline comet assay; assay type: cell-based; conditions: 24 h; CIT 30 µM, CBD 1 µM, bleomycin 1.25 µg/mL
Protocol: (§1) The experimental design included the establishment of lymphocyte cultures, and the 24 h treatments with the test compounds, performed according to the last OECD recommendations, given in the Test Guideline No. 487—In Vitro Mammalian Cell Micronucleus Test.
(§2) The selection of specific concentrations of test compounds adhered to the guidelines for in vitro genotoxicity testing using comet assay. […] Solutions used in testing were prepared just prior to treatment by dissolving the test compounds in ethanol (Kemika, Zagreb, Croatia).
(§3) Two independent trials, with six experimental groups each, were conducted. A total of six replicate cultures for every single experimental group were established. This step was carried out as follows: aliquots of heparinized blood (V = 600 μL per culture) were pipetted into a growth medium RPMI-1640 (Gibco, Grand Island, NY, USA) supplemented with 10% fetal calf serum (Gibco, Grand Island, NY, USA) and antibiotics (penicillin and streptomycin; Sigma-Aldrich, Steinheim, Germany). Lymphocytes were stimulated with a mitogen phytohemagglutinin (Remel, Lenexa, KS, USA) in order to induce cell division prior to exposure to the test chemicals. Cultures were maintained in the humidified atmosphere of 5% CO2 at 37 °C (Heraeus Hera Cell 240 incubator; Langenselbold, Germany).
(§4) Negative controls (NCs) were non-treated lymphocytes. Solvent controls (SCs) were lymphocytes treated with ethanol (its final concentration in the culture corresponded to 0.03%). Positive controls (PCs) were lymphocytes treated for 24 h with bleomycin at 1.25 µg/mL (according to [69]). The other three groups were lymphocytes exposed to single CIT, single CBD, and their combination (CIT + CBD, at the same concentrations).
(§5) Treatments with test compounds started 20 h after the initial establishment of the cell cultures and lasted for 24 h. Upon completion of the exposure, aliquots of 100 µL of the treated cultures were pipetted in sterile conditions and used to prepare microgels for the alkaline comet assay. The remaining content of flasks was further processed using Cytokinesis-Block Micronucleus Cytome (CBMN Cyt) Assay.

[2] = system: human peripheral blood lymphocytes; experiment: Lymphocyte proliferation / cytotoxicity (CBPI, RI); assay type: cell-based; conditions: 24 h, citrinin 7.50 µg/mL, CBD 3.15 µg/mL, bleomycin 1.25 µg/mL
Excerpt: On the same slides, parameters of cell proliferation, cytostasis and cytotoxicity were studied, according to recommendations by OECD 2023 [67]. For that purpose, the numbers of mono-, bi-, tri-, and quadrinuclear cells (i.e., M1, M2, M3, M4) were scored at 400× magnification using a light microscope (Leitz, Oberkochen, Germany). The total number of M1 to M4 cells counted per experimental group was 3000 (i.e., 6 × 500 cells).
Based on the scored ratios of M1 to M4 cells, the Cytokinesis-Block Proliferation Index (CBPI) was calculated, using the formula: CBPI = [(No. of mononucleated cells) + (2 × No. of binucleated cells) + (3 × No. of multinucleated cells)]/(Total number of cells).
To establish the relative number of cell cycles per cell during the period of exposure to cytoB in treated compared to control cultures, the Replication Index (RI) was also calculated according to the formula:RI = {[(<No. binucleated cells> + <2 × No. multinucleated cells>)/(Total number of cells in treated culture)]/[(<No. binucleated cells> + <2 × No. multinucleated cells>) […] (Total number of cells in control culture)]} × 100
Finally, from the obtained values of RI, the cytotoxicity estimate was deduced, as % Cytotoxicity = […].

[3] = system: human peripheral blood lymphocytes; experiment: Cytokinesis-Block Micronucleus Cytome (CBMN Cyt) Assay; conditions: 24 h, citrinin 30 µM, CBD 1 µM, bleomycin 1.25 µg/mL
Protocol: as §1, §2, §3, §4, §5
CBMN Cyt Assay was performed according to standard protocols proposed for micronucleus assay. Upon completion of the exposure, lymphocyte cultures were subjected to centrifugation at 100× g using a benchtop centrifuge (ROTOFIX 32A, Hettich, Tuttlingen, Germany). During this process, cells settled to the bottom of the tube. The growth medium with tested compounds was removed by pipetting, discarded and replaced with a fresh amount of complete growth medium RPMI-1640 that contained Cytochalasin B (cytoB; Sigma-Aldrich, Steinheim, Germany) at a final concentration of 6 µg/mL. This procedure was timed to the 44th hour of lymphocyte cultivation, as that time is a critical point for the addition of cytoB to inhibit cytokinesis and obtain binucleated cells. All treated and control cultures were further maintained in the previously described conditions at 37 °C until the end of the 72nd hour of cultivation, as proposed by protocols. Then, the preparation of microscopic slides started, which included harvesting of cells by centrifugation (100× g, ROTOFIX 32A centrifuge, Hettich, Tuttlingen, Germany), followed by hypotonic treatment (0.075 mol/L KCl; Kemika, Zagreb, Croatia), and a new round of centrifugation. The resulting sediments of cells were fixed in several repeating stages with methanol–acetic acid (3:1 v/v; both obtained from Kemika, Zagreb, Croatia) followed by centrifugation. The final lymphocyte suspension was dropped onto clean microscope slides.

## bleomycin [Positive Control]
[1]
  tail intensity, mean value ± SE: 14.81 ± 0.59%
[2]; 3000 cells scored
  Cytokinesis-Block Proliferation Index: 1.60^↓nc, sc, cit, cbd,&
[2]; deduced from RI
  Cytotoxicity (%): 41.25%
[2]; relative to negative control
  Replication Index (%): 58.75%
[3]; in 6000 BN cells
  Distribution of BNMN Cells with 1 MN: 99 ^a,b,c,d,e
  Distribution of BNMN Cells with 2 MNi: 20 ^a,b,c,d,e
  Distribution of BNMN Cells with 3 MNi: 3
  Distribution of BNNB Cells with 1 NB: 85 ^a,b,c,d,e
  Distribution of BNNB Cells with 2 NBs: 12 ^a,b,c,d,e
  Micronuclei (MNi) and BNMN Cells: Total (BNNB)6000: 122 ^a,b,c,d,e
  Micronuclei (MNi) and BNMN Cells: Total (MNi)6000: 148 ^a,b,c,d,e
  Nuclear Buds (NBs) and BNNB Cells: Total (BNNB)6000: 97 ^a,b,c,d,e
  Nuclear Buds (NBs) and BNNB Cells: Total (NBs)6000: 109 ^a,b,c,d,e
  Nucleoplasmic Bridges (NPBs) and BNNPB Cells: Total (BNNPB)6000: 9 ^a,b,c,d,e
  Nucleoplasmic Bridges (NPBs) and BNNPB Cells: Total (NPBs)6000: 9 ^a,b,c,d,e
[3]; in 6000 cells
  Cell Death: Total (Apoptosis)6000: 94 ^a,b,c,d,e
  Cell Death: Total (Necrosis)6000: 71 ^a,b,c,d,e
[3]; per 1000 BN cells
  Micronuclei (MNi) and BNMN Cells: Mean (BNMN)1000 ± SD: 20.3 ± 2.9 ^a,b,c,d,e
  Micronuclei (MNi) and BNMN Cells: Mean (MNi)1000 ± SD: 24.7 ± 2.5 ^a,b,c,d,e
  Nuclear Buds (NBs) and BNNB Cells: Mean (BNNB)1000 ± SD: 16.2 ± 5.0 ^a,b,c,d,e
  Nuclear Buds (NBs) and BNNB Cells: Mean (NBs)1000 ± SD: 18.2 ± 6.5 ^a,b,c,d,e
  Nucleoplasmic Bridges (NPBs) and BNNPB Cells: Mean (BNNPB)1000 ± SD: 1.5 ± 0.8 ^a,b,c,d,e
  Nucleoplasmic Bridges (NPBs) and BNNPB Cells: Mean (NPBs)1000 ± SD: 1.5 ± 0.8 ^a,b,c,d,e
[3]; per 1000 cells
  Cell Death: Mean (Apoptosis)1000 ± SD: 15.7 ± 5.6 ^a,b,c,d,e
  Cell Death: Mean (Necrosis)1000 ± SD: 11.8 ± 3.6 ^a,b,c,d,e
